Molecular target: T1, G3BP1^335–466 (RRM and IDR3 domains) (Homo sapiens, UniProt Q13283)
T1 construct: RRM + IDR3, residues 335-466, N-terminal GST removed by thrombin, E. coli BL21(DE3)
Assay: SPR (Biacore T200, protein on CM5 chip)
Assay type: binding

T1 sequence (Q13283 335-466): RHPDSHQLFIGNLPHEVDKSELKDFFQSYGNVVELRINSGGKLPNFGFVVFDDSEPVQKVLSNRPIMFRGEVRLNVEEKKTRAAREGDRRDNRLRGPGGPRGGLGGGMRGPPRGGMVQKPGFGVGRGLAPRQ

Kd: > 100 µM
SMILES: COc1ccc(-c2oc3c(CC=C(C)C)c(O[C@@H]4O[C@H](CO)[C@@H](O)[C@H](O)[C@H]4O)cc(O)c3c(=O)c2O[C@@H]2O[C@@H](C)[C@H](O)[C@@H](O)[C@H]2O)cc1 [icariin]
